Key:
Experiment in all cases: viability relative to DMSO control (fraction); higher = less drug effect (more viable cells)
Conditions in all cases: 48 h
[1] = tested on: primary AML patient cells (S089)
Method in brief: (§1)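 Viability was measured as CellTiter-Glo luminescence relative to the median of 16 inner DMSO wells. Primary mononuclear tumour cells, fresh or cryopreserved, were Ficoll-isolated from blood or bone marrow or taken from processed lymph node. They were seeded at 4 × 10^4 cells per well into 384-well plates holding pre-plated compounds at five concentrations, one well each, and kept in RPMI-1640 with penicillin/streptomycin, L-glutamine and human serum at 37 °C and 5% CO2 for 48 h.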

[2] = tested on: primary MCL patient cells (S068)
Method in brief: as §1

[3] = tested on: primary AML patient cells (S017)
Method in brief: as §1

[4] = tested on: primary AML patient cells (S085)
Method in brief: as §1

[5] = tested on: primary AML patient cells (S091)
Method in brief: as §1

[6] = tested on: primary AML patient cells (S019)
Method in brief: as §1

[7] = tested on: primary CLL patient cells (S031)
Method in brief: as §1

[8] = tested on: primary BL patient cells (S005)
Method in brief: as §1

[9] = tested on: primary MCL patient cells (S053)
Method in brief: as §1

[10] = tested on: primary AML patient cells (S037)
Method in brief: as §1

[11] = tested on: primary AML patient cells (S079)
Method in brief: as §1

[12] = tested on: primary AML patient cells (S025)
Method in brief: as §1

[13] = tested on: primary AML patient cells (S012)
Method in brief: as §1

[14] = tested on: primary AML patient cells (S002)
Method in brief: as §1

[15] = tested on: primary AML patient cells (S072)
Method in brief: as §1

[16] = tested on: primary AML patient cells (S056)
Method in brief: as §1

[17] = tested on: primary FL patient cells (S022)
Method in brief: as §1

[18] = tested on: primary ALL patient cells (S048)
Method in brief: as §1

[19] = tested on: primary AML patient cells (S071)
Method in brief: as §1

[20] = tested on: primary CLL patient cells (S043)
Method in brief: as §1

SMILES: Nc1ncn([C@@H]2O[C@H](CO)[C@@H](O)[C@H]2O)c(=O)n1 [Azacytidine (Vidaza)]
- viability ([1]; 0.032 µM): 0.841
- viability ([1]; 0.16 µM): 1.05
- viability ([1]; 0.8 µM): 0.67
- viability ([1]; 4 µM): 0.0823
- viability ([1]; 20 µM): 0.0388
- viability ([2]; 0.032 µM): 0.969
- viability ([2]; 0.16 µM): 1.04
- viability ([2]; 0.8 µM): 0.798
- viability ([2]; 4 µM): 0.325
- viability ([2]; 20 µM): 0.232
- viability ([3]; 0.032 µM): 0.912
- viability ([3]; 0.16 µM): 0.96
- viability ([3]; 0.8 µM): 0.935
- viability ([3]; 4 µM): 0.661
- viability ([3]; 20 µM): 0.562
- viability ([4]; 0.032 µM): 1.22
- viability ([4]; 0.16 µM): 0.976
- viability ([4]; 0.8 µM): 0.638
- viability ([4]; 4 µM): 0.14
- viability ([4]; 20 µM): 0.0812
- viability ([5]; 0.032 µM): 0.933
- viability ([5]; 0.16 µM): 1.02
- viability ([5]; 0.8 µM): 0.892
- viability ([5]; 4 µM): 0.788
- viability ([5]; 20 µM): 0.621
- viability ([6]; 0.032 µM): 0.935
- viability ([6]; 0.16 µM): 1.34
- viability ([6]; 0.8 µM): 0.986
- viability ([6]; 4 µM): 0.522
- viability ([6]; 20 µM): 0.308
- viability ([7]; 0.032 µM): 1.08
- viability ([7]; 0.16 µM): 1.01
- viability ([7]; 0.8 µM): 0.989
- viability ([7]; 4 µM): 0.539
- viability ([7]; 20 µM): 0.0698
- viability ([8]; 0.032 µM): 0.847
- viability ([8]; 0.16 µM): 0.862
- viability ([8]; 0.8 µM): 0.841
- viability ([8]; 4 µM): 0.766
- viability ([8]; 20 µM): 0.708
- viability ([9]; 0.032 µM): 0.924
- viability ([9]; 0.16 µM): 0.999
- viability ([9]; 0.8 µM): 0.587
- viability ([9]; 4 µM): 0.351
- viability ([9]; 20 µM): 0.289
- viability ([10]; 0.032 µM): 1
- viability ([10]; 0.16 µM): 1.01
- viability ([10]; 0.8 µM): 0.901
- viability ([10]; 4 µM): 0.7
- viability ([10]; 20 µM): 0.595
- viability ([11]; 0.032 µM): 0.972
- viability ([11]; 0.16 µM): 1.09
- viability ([11]; 0.8 µM): 0.942
- viability ([11]; 4 µM): 0.671
- viability ([11]; 20 µM): 0.304
- viability ([12]; 0.032 µM): 1.07
- viability ([12]; 0.16 µM): 0.961
- viability ([12]; 0.8 µM): 0.757
- viability ([12]; 4 µM): 0.285
- viability ([12]; 20 µM): 0.0947
- viability ([13]; 0.032 µM): 0.958
- viability ([13]; 0.16 µM): 1.01
- viability ([13]; 0.8 µM): 1.04
- viability ([13]; 4 µM): 0.92
- viability ([13]; 20 µM): 0.766
- viability ([14]; 0.032 µM): 0.946
- viability ([14]; 0.16 µM): 0.979
- viability ([14]; 0.8 µM): 0.667
- viability ([14]; 4 µM): 0.31
- viability ([14]; 20 µM): 0.229
- viability ([15]; 0.032 µM): 1.03
- viability ([15]; 0.16 µM): 1.02
- viability ([15]; 0.8 µM): 0.958
- viability ([15]; 4 µM): 0.83
- viability ([15]; 20 µM): 0.652
- viability ([16]; 0.032 µM): 0.987
- viability ([16]; 0.16 µM): 0.997
- viability ([16]; 0.8 µM): 0.467
- viability ([16]; 4 µM): 0.0878
- viability ([16]; 20 µM): 0.078
- viability ([17]; 0.032 µM): 1.03
- viability ([17]; 0.16 µM): 1
- viability ([17]; 0.8 µM): 1.01
- viability ([17]; 4 µM): 0.949
- viability ([17]; 20 µM): 0.624
- viability ([18]; 0.032 µM): 0.926
- viability ([18]; 0.16 µM): 0.989
- viability ([18]; 0.8 µM): 0.695
- viability ([18]; 4 µM): 0.239
- viability ([18]; 20 µM): 0.102
- viability ([19]; 0.032 µM): 0.968
- viability ([19]; 0.16 µM): 0.985
- viability ([19]; 0.8 µM): 0.695
- viability ([19]; 4 µM): 0.29
- viability ([19]; 20 µM): 0.131
- viability ([20]; 0.032 µM): 0.937
- viability ([20]; 0.16 µM): 1.11
- viability ([20]; 0.8 µM): 0.889
- viability ([20]; 4 µM): 0.716
- viability ([20]; 20 µM): 0.55
